Assay results as given in US8846639B2, “Oligomeric compounds comprising bicyclic nucleosides and having reduced toxicity” (Isis Pharmaceutical, Inc., priority 2008, dated 2014).

Columns and labels:
[1] = Liver transaminase (ALT) levels in serum (Example 14); format: in vivo, mice
Experimental: (§1) Six week old male Balb/c mice (Jackson Laboratory, Bar Harbor, Me.) were administered a single intraperitoneal (i.p) injection with 4′-CH2—O-2′ BNA containing oligomers (392745 and 392063) and 6(S)-4′-CH(CH3)—O-2′ BNA containing oligomers (392749 and 411847) at a does of 3.2, 10, 32, 66 and 100 mg/kg. Oligomers 392063 and 411847 contain LNA nucleosides with methylated pyrimidines, and oligomers 392745 and 392749 contain LNA nucleosides with non-methylated pyrimidines in the wings. All intemucleoside linkages are phosphorothioates, nucleosides not followed by a subscript are βD-2′-deoxyribonucleosides, nucleosides followed by a subscript 1 are 4′-CH2—O-2′ modified bicyclic nucleosides, nucleosides followed by a subscript S are 6(S)-4′-CH(CH3)—O-2′ modified bicyclic nucleosides wherein S indicates the configuration at the 6 carbon atom and ^MeC indicates a 5′-methyl cytosine nucleoside.
(§2) Liver transaminase levels, alanine aminotranferease (ALT) and aspartate aminotransferase (AST), in serum were also measured relative to saline injected mice. Increases in the transaminase levels can indicate hepatotoxicity. The approximate liver transaminase levels are listed below.

PTEN mRNA [2] = assay: PTEN mRNA levels in liver, real-time PCR (Example 14 in vivo study); parameters: species or system mice; conditions: for PTEN mRNA levels (% inhibition): liver, 72 h; for ED50: estimated, Graphpad Prism, dose at which 50% mRNA reduction is observed
Experimental: as §1
(§3) Each dose group consisted of four animals. The mice were sacrificed 72 hours following the final administration to determine the PTEN mRNA levels in liver using real-time PCR and RIBOGREEN® RNA quantification reagent (Molecular Probes, Inc. Eugene, Oreg.) according to standard protocols. PTEN mRNA levels were determined relative to total RNA (using Ribogreen), prior to normalization to saline-treated control. Results are listed below as the average % inhibition of mRNA expression for each treatment group, normalized to saline-injected control.
Estimated ED50 concentrations for each oligomers were calculated using Graphpad Prism. ED50 is the dose at which 50% mRNA reducation is observed.

[3] = Liver, kidney, spleen weights and body weight gain (Example 13); format: in vivo, mice; conditions: for Kidney weight / Liver weight / Spleen weight: saline = 1.00; for Body weight gain: saline = 1.05; for liver, kidney, spleen weights or body weight gain compared to saline: normal mice, 20 and 60 mg/kg
Experimental: (§4) In accordance with the present invention, oligomeric compounds were synthesized and tested for their ability to reduce PTEN expression in vivo at doses of 20 and 60 mg/kg. Six week old male Balb/c mice (Jackson Laboratory, Bar Harbor, Me.) were administered a single intraperitoneal (i.p) injection at either 20 or 60 mg/kg of 4′-CH2—O-2′ BNA 2-10-2 gapped oligomers ([…] and 392745). The 4′-CH2—O-2′ BNA gapped oligomer, 392745, contains non-methylated pyrimidine in the wings. The 4′-CH2—O-2′ BNA gapped oligomer, 392063, contains methylated pyrimidine in the wings (i.e. each cytosine residues in the 4′-CH2—O-2′ BNA wings of 392745 are replaced with 5-methylcytosines, while the thymidine residues in the 4′-CH2—O-2′ BNA wings of 392745 are replaced with 5-methyl thymidines). All internucleoside linkages are phosphorothioates, nucleosides not followed by a subscript are βD-2′-deoxyribonucleosides, nucleosides followed by a subscript 1 are 4′-CH2—O-2′ modified bicyclic nucleosides and ^MeC indicates a 5′-methyl cytosine nucleoside.
The effects on liver, kidney, spleen weights and body weight gain were also determined.

complementary RNA = assay: Tm of modified oligomers with complementary RNA; format: binding; conditions: 100 mM phosphate buffer, 0.1 mM EDTA, pH 7, 260 nm, 4 μM oligomer and 4 μM complementary RNA
Experimental: as §3, with “saline-injected control. Resulting dose-response curves were used to determine the IC50. Tm's were assessed in 100 mM phosphate buffer, 0.1 mM EDTA, pH 7, at 260 nm using 4 μM modified oligomers and 4 μM complementary RNA.” for “saline-injected control.”

[4] = Liver transaminase levels (ALT, AST) in serum (Example 13); format: in vivo, mice; conditions: for transaminase levels with respect to saline treated control: 20 mg/kg; for ALT / AST: serum; for ALT: saline = 24; for AST: saline = 68
Experimental: as §4
as §2, with “hepatotoxicity. […] The ALT and AST levels measured for mice treated with 60 mg/kg does of 392745 were decreased about 4.5-fold and 3 fold as compared to 392063 treatment.” for “hepatotoxicity.”

PTEN mRNA [5] = assay: PTEN mRNA levels in liver, real-time PCR (Example 13 in vivo study); conditions: Balb/c mice, 72 h, normalized to saline control
Experimental: as §4
as §3, with “saline-injected control. Resulting dose-response curves were used to determine the IC50. Tm's were assessed in 100 mM phosphate buffer, 0.1 mM EDTA, pH 7, at 260 nm using 4 μM modified oligomers and 4 μM complementary RNA.” for “saline-injected control.”

Substance | ALT levels ([1]; 3.2 mg/kg, serum, saline = 24) [IU/L] | ALT levels ([1]; 10 mg/kg, serum, saline = 24) [IU/L] | ALT levels ([1]; 32 mg/kg, serum, saline = 24) [IU/L] | ALT levels ([1]; 66 mg/kg, serum, saline = 24) [IU/L] | ALT levels ([1]; 100 mg/kg, serum, saline = 24) [IU/L] | PTEN mRNA levels (% inhibition) (PTEN mRNA [2]; 3.2 mg/kg single i.p.) [%] | PTEN mRNA levels (% inhibition) (PTEN mRNA [2]; 10 mg/kg single i.p.) [%] | PTEN mRNA levels (% inhibition) (PTEN mRNA [2]; 32 mg/kg single i.p.) [%] | PTEN mRNA levels (% inhibition) (PTEN mRNA [2]; 66 mg/kg single i.p.) [%] | PTEN mRNA levels (% inhibition) (PTEN mRNA [2]; 100 mg/kg single i.p.) [%] | ED50 (PTEN mRNA [2]) [mg/kg] | Kidney weight ([3]; 20 mg/kg) | Liver weight ([3]; 20 mg/kg) | Spleen weight ([3]; 20 mg/kg) | Body weight gain ([3]; 20 mg/kg) | Kidney weight ([3]; 60 mg/kg) | Liver weight ([3]; 60 mg/kg) | Spleen weight ([3]; 60 mg/kg) | Body weight gain ([3]; 60 mg/kg) | liver, kidney, spleen weights or body weight gain compared to saline [3] | further results
C1U1TAGCACTGGCC1U1 [ISIS 392745] | 30 | 20 | 13 | 59 | 3842 | 0 | 58 | 90 | 90 | 93 | 9 | 1.02 | 1.22 | 1.14 | 1.06 | 1.02 | 1.25 | 1.12 | 1.01 | did not substantially alter | ALT level decrease as compared to 392063 treatment ([1]; 100 mg/kg): about 3.5 fold; ALT levels with respect to saline treated control ([1]; lower doses (3.2, 10, 32 and 66 mg/kg)): not elevated to a level indicative of hepatotoxicity; Tm (complementary RNA): 58.6 °C; transaminase levels with respect to saline treated control [4]: not elevated to a level indicative of hepatotoxicity; ALT ([4]; 20 mg/kg single i.p.): 29 IU/L; AST ([4]; 20 mg/kg single i.p.): 81 IU/L; ALT level decrease as compared to 392063 treatment ([4]; 60 mg/kg): about 4.5 fold; AST level decrease as compared to 392063 treatment ([4]; 60 mg/kg): ~3 fold; ALT ([4]; 60 mg/kg single i.p.): 108 IU/L; AST ([4]; 60 mg/kg single i.p.): 202 IU/L; % inhibition (PTEN mRNA expression in liver) (PTEN mRNA [5]; 20 mg/kg single i.p.): 89%; % inhibition (PTEN mRNA expression in liver) (PTEN mRNA [5]; 60 mg/kg single i.p.): 92%
^MeC1T1TAGCACTGGC^MeC1T1 [ISIS 392063] | 20 | 17 | 20 | 4292 | 13811 | 0 | 68 | 88 | 90 | 91 | 8 | 1.02 | 1.22 | 0.99 | 1.05 | 1.00 | 1.29 | 1.11 | 0.99 | did not substantially alter | ALT levels ([1]; higher doses (66 mg/kg and 100 mg/kg)): substantially increased; Tm (complementary RNA): 60.5 °C; transaminase levels with respect to saline treated control [4]: not elevated to a level indicative of hepatotoxicity; ALT ([4]; 20 mg/kg single i.p.): 28 IU/L; AST ([4]; 20 mg/kg single i.p.): 56 IU/L; ALT and AST levels ([4]; 60 mg/kg): substantially increased; ALT ([4]; 60 mg/kg single i.p.): 489 IU/L; AST ([4]; 60 mg/kg single i.p.): 598 IU/L; % inhibition (PTEN mRNA expression in liver) (PTEN mRNA [5]; 20 mg/kg single i.p.): 86%; % inhibition (PTEN mRNA expression in liver) (PTEN mRNA [5]; 60 mg/kg single i.p.): 92%
